Test results reported in US20170008928A1, “NOVEL PEPTIDES AND PEPTIDE DERIVATIVES AND USES THEREOF” (Novo Nordisk A/S, priority 2015, published 2017).
Read-outs that look alike come from different tables or passages of the source. Starred links: 1 amine or outer side, 2 acyl side, 3 side chain; linkers in the order of their positions; H or OH if unused. Non-standard residues stand in square brackets, D forms with d. Residues, ends and D or L forms follow the SMILES beside them. *: point of attachment. Phe(4-CH2SO3H) = N[C@@H](Cc1ccc(CS(=O)(=O)O)cc1)C(=O)O; sY = N[C@@H](Cc1ccc(OS(=O)(=O)O)cc1)C(=O)O; C18 diacid = O=C(O)CCCCCCCCCCCCCCCCC(=O)*; γGlu = O=C(O)[C@H](CCC(=O)[*:2])N[*:1]; Met(O2) = CS(=O)(=O)CC[C@H](N)C(=O)O; NMeF = CN[C@@H](Cc1ccccc1)C(=O)O; dNMeD = CN[C@H](CC(=O)O)C(=O)O; Nle = CCCC[C@H](N)C(=O)O; AEEA = NCCOCCOCC(=O)O

What was measured:
[1] = target: T1, human cholecystokinin-1 receptor (CCK-1R) (Homo sapiens, UniProt P32238); test: In vitro potency on CCK-1R, whole cell functional assay (IP1 accumulation, IP-One HTRF); type: cell-based
T1 construct: host or cells: 1321-N1 cells
T1 sequence (P32238 1-428): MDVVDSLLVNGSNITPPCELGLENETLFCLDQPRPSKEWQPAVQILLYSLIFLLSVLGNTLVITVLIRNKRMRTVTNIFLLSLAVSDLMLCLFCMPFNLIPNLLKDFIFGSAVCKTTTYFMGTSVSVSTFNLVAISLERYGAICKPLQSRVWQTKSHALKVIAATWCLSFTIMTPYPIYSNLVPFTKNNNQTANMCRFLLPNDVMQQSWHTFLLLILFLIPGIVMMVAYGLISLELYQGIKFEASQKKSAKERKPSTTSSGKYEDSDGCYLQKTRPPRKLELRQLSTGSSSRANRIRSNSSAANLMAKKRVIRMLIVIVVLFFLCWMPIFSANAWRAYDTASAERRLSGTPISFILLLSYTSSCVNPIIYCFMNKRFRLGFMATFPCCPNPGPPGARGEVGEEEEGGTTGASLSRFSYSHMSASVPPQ

[2] = target: T2, human cholecystokinin-2 receptor (CCK-2R) (Homo sapiens, UniProt P32239); test: In vitro potency on CCK-2R, whole cell functional assay (IP1 accumulation, IP-One HTRF); type: cell-based
T2 construct: host or cells: 1321-N1 cells (plasma membranes prepared by Evotec AG Hamburg)
T2 sequence (P32239 1-447): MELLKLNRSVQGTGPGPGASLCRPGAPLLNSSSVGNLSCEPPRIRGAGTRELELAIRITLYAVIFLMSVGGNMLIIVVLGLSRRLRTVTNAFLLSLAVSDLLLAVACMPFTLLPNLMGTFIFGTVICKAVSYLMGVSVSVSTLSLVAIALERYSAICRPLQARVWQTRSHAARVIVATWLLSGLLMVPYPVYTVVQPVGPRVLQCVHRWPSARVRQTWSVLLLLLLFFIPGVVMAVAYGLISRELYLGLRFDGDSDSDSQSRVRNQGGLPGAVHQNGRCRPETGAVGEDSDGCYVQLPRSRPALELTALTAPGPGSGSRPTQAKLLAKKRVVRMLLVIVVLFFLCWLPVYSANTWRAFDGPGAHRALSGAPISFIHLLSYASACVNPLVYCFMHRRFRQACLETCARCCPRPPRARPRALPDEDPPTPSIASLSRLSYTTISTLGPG

[3] = target: T2, human cholecystokinin-2 receptor (CCK-2R); test: In vitro receptor binding to CCK-2R, SPA displacement of [125I]-CCK-8s from plasma membranes
[4] = 1321-N1 cells stably expressing CCK-1R, IP1 accumulation, average of min. three replicates, read-out: EC50 (CCK-1R)
[5] = 1321-N1 cells stably expressing CCK-2R, IP1 accumulation, highest dose tested 1×10^6 pM, read-out: EC50 (CCK-2R)
[6] = displacement of [125I]-CCK-8s, plasma membranes of 1321-N1 cells expressing CCK-2R, highest dose tested 1×10^7 pM, read-out: IC50 (CCK-2R)

| EC50 [1, 4] [nM] | EC50 [2, 5] [nM] | IC50 [3, 6] [µM] | SMILES | IC50 [3] [µM] | EC50 [1] [nM] | EC50 [2] [nM] |
| --- | --- | --- | --- | --- | --- | --- |
| 0.21 | 270 | 0.88 | CCCC[C@H](NC(=O)[C@H](Cc1c[nH]c2ccccc12)NC(=O)CNC(=O)[C@H](CCCNC(=N)N)NC(=O)[C@H](Cc1ccc(OS(=O)(=O)O)cc1)NC(=O)[C@H](CC(=O)O)NC(=O)COCCOCCNC(=O)COCCOCCNC(=O)CC[C@H](NC(=O)CCCCCCCCCCCCCCCCC(=O)O)C(=O)O)C(=O)N(C)[C@H](CC(=O)O)C(=O)N(C)[C@@H](Cc1ccccc1)C(N)=O [Example 17, 2-[2-[2-[[2-[2-[2-[[(4S)-4-Carboxy-4-(17-carboxyheptadecanoylamino)butanoyl]amino]ethoxy]ethoxy]acetyl]amino]ethoxy]ethoxy]acetyl-Asp-sTyr-Arg-Gly-Trp-Nle-DMeAsp-MePhe-amide] ({C18 diacid-γGlu-AEEA-AEEA}-D[sY]RGW[Nle][dNMeD][NMeF]-NH2) |  |  |  |
| 0.25 | > 1000 | > 10 | CCCC[C@H](NC(=O)[C@H](Cc1ccc(CS(=O)(=O)O)cc1)NC(=O)[C@@H](N)CC(=O)O)C(=O)NCC(=O)N[C@@H](Cc1c[nH]c2ccccc12)C(=O)N[C@@H](CCCC)C(=O)N(C)[C@H](CC(=O)O)C(=O)N(C)[C@@H](Cc1ccccc1)C(N)=O [Example 55, Asp-Phe(4-sulfomethyl)-Nle-Gly-Trp-Nle-DMeAsp-MePhe-amide] (H-D[Phe(4-CH2SO3H)][Nle]GW[Nle][dNMeD][NMeF]-NH2) |  |  |  |
| 0.21 | > 1000 | > 10 | CCCC[C@H](NC(=O)[C@H](Cc1c[nH]c2ccccc12)NC(=O)CNC(=O)[C@H](CC(C)C)NC(=O)[C@H](Cc1ccc(OS(=O)(=O)O)cc1)NC(=O)[C@@H](N)CC(=O)O)C(=O)N(C)[C@H](CC(=O)O)C(=O)N[C@@H](Cc1ccccc1)C(N)=O [Example 58, Asp-sTyr-Leu-Gly-Trp-Nle-DMeAsp-Phe-amide] |  |  |  |
|  |  |  | CC(C)C[C@H](NC(=O)[C@H](Cc1ccc(OS(=O)(=O)O)cc1)NC(=O)[C@@H](N)CC(=O)O)C(=O)NCC(=O)N[C@@H](Cc1c[nH]c2ccccc12)C(=O)N[C@@H](CC(C)C)C(=O)N(C)[C@H](CC(=O)O)C(=O)N(C)[C@@H](Cc1ccccc1)C(N)=O [Example 64, Asp-sTyr-Leu-Gly-Trp-Leu-DMeAsp-MePhe-amide] | > 10 | 0.25 | > 1000 |
| 0.19 | > 1000 | > 10 | CCCC[C@H](NC(=O)[C@H](Cc1c[nH]c2ccccc12)NC(=O)CNC(=O)[C@@H]1CCCN1C(=O)[C@H](Cc1ccc(OS(=O)(=O)O)cc1)NC(=O)[C@@H](N)CC(=O)O)C(=O)N(C)[C@H](CC(=O)O)C(=O)N(C)[C@@H](Cc1ccccc1)C(N)=O [Example 69, Asp-sTyr-Pro-Gly-Trp-Nle-DMeAsp-MePhe-amide] (H-D[sY]PGW[Nle][dNMeD][NMeF]-NH2) |  |  |  |
| 0.21 | 920 | > 10 | CCCC[C@H](NC(=O)[C@H](Cc1c[nH]c2ccccc12)NC(=O)CNC(=O)[C@H](CC(C)C)NC(=O)[C@H](Cc1ccc(OS(=O)(=O)O)cc1)NC(=O)[C@@H](N)CCC(=O)O)C(=O)N(C)[C@H](CC(=O)O)C(=O)N(C)[C@@H](Cc1ccccc1)C(N)=O [Example 77, Glu-sTyr-Leu-Gly-Trp-Nle-DMeAsp-MePhe-amide] (H-E[sY]LGW[Nle][dNMeD][NMeF]-NH2) |  |  |  |
| 0.19 | > 1000 |  | CCCC[C@H](NC(=O)[C@H](Cc1c[nH]c2ccccc12)NC(=O)CNC(=O)[C@H](CO)NC(=O)[C@H](Cc1ccc(OS(=O)(=O)O)cc1)NC(=O)[C@@H](N)CC(=O)O)C(=O)N(C)[C@H](CC(=O)O)C(=O)N(C)[C@@H](Cc1ccccc1)C(N)=O [Example 79, Asp-sTyr-Ser-Gly-Trp-Nle-DMeAsp-MePhe-amide] (H-D[sY]SGW[Nle][dNMeD][NMeF]-NH2) |  |  |  |
| 0.16 | > 1000 | > 10 | CCCC[C@H](NC(=O)[C@H](Cc1c[nH]c2ccccc12)NC(=O)CNC(=O)[C@H](C)NC(=O)[C@H](Cc1ccc(OS(=O)(=O)O)cc1)NC(=O)[C@@H](N)CC(=O)O)C(=O)N(C)[C@H](CC(=O)O)C(=O)N(C)[C@@H](Cc1ccccc1)C(N)=O [Example 80, Asp-sTyr-Ala-Gly-Trp-Nle-DMeAsp-MePhe-amide] (H-D[sY]AGW[Nle][dNMeD][NMeF]-NH2) |  |  |  |

| SMILES | EC50 [1, 4] [nM] | EC50 [2, 5] [nM] | IC50 [3, 6] [µM] | IC50 [3] [µM] | EC50 [1] [nM] | EC50 [2] [nM] |
| --- | --- | --- | --- | --- | --- | --- |
| CC(C)C[C@H](NC(=O)[C@H](Cc1ccc(OS(=O)(=O)O)cc1)NC(=O)[C@H](CC(=O)O)NC(=O)COCCOCCNC(=O)COCCOCCNC(=O)CC[C@H](NC(=O)CCCCCCCCCCCCCCCCC(=O)O)C(=O)O)C(=O)NCC(=O)N[C@@H](Cc1c[nH]c2ccccc12)C(=O)N[C@@H](CCS(C)(=O)=O)C(=O)N(C)[C@H](CC(=O)O)C(=O)N(C)[C@@H](Cc1ccccc1)C(N)=O [Example 12, 2-[2-[2-[[2-[2-[2-[[(4S)-4-Carboxy-4-(17-carboxyheptadecanoylamino)butanoyl]amino]ethoxy]ethoxy]acetyl]amino]ethoxy]ethoxy]acetyl-Asp-sTyr-Leu-Gly-Trp-Met(O2)-DMeAsp-MePhe-amide] ({C18 diacid-γGlu-AEEA-AEEA}-D[sY]LGW[Met(O2)][dNMeD][NMeF]-NH2) | 0.14 | > 1000 |  | > 10 |  |  |
